For one experiment, the system named is A375 or UACC-62 cells. Kind of experiment: In vitro resistance assay (SRB, 5, 10 and 20 days). Conditions: for cell number compared to the control, after 5 days: vemurafenib 5 μM or 10 μM; for cell death on day 10: A375, alone or with 1 μM PAC-1. The experiment is classed as cell-based, human. How it is done:
The next day, vemurafenib (5 or 10 μM) or PAC-1 (1 μM) were treated in six technical replicates for 5, 10 and 20 days. Fresh media and compounds were added every 2-3 days for the duration of the study. At the end of 5, 10 or 20 days, the wells were fixed with 10% cold trichloroacetic acid for 1 h at 4° C. The wells were then washed, allowed to dry and stained with 0.5% SRB dye for 30 min at room temperature. The wells were then washed with 0.1% acetic acid and allowed to dry. At this point, images of the plates were taken with GelDoc XR (BioRad). Finally, 200 μL of 10 mM Tris base (pH >10.4) was added into well and the absorbance at 510 nm were read using SpectraMax Plus (Molecular Devices). The absorbance at 510 nm is plotted against the days post treatment as an indication of cell proliferation over the time course of the experiment.

Another experiment has as its system A375 cells. Kind of experiment: Cellular proliferation (SRB) assay in A375. Conditions: for Emax: A-375, 120 h. The experiment is classed as cell-based, human. The procedure: (§1) 1000-2000 cells were seeded per well in a 96-well plate and allowed to adhere before DMSO solutions of PAC-1 or vemurafenib were added to each well. Proliferation was assessed by the sulforhodamine B (SRB) assay.

Another experiment deals with A375 and SK-MEL-5 cells. Kind of experiment: Long-term (up to 30 days) continuous treatment, cell regrowth. The experiment is classed as cell-based, human. The settings on record: PAC-1 4 μM or vemurafenib 10 μM. The procedure:
We therefore hypothesized that long term treatment with vemurafenib would lead to re-growth of cancer cells, while treatment with PAC-1 should prevent re-growth. To investigate this hypothesis, A375 and SK-MEL-5 cells were plated at low densities and treated continuously with PAC-1 (4 μM) or vemurafenib (10 μM) for up to 30 days. […] However, in wells treated with PAC-1, no regrowth was observed even after 30 days (FIG. 5B). Thus, consistent with the higher Emax value, PAC-1 is able to quantitatively kill cells thereby preventing regrowth.

Another experiment relates to A375 xenograft tumors. Kind of experiment: A375 subcutaneous mouse xenograft model of melanoma.
Experiment [1] concerns caspase-3/-7 activity in A375 cells. Conditions: PAC-1 12 μM, vemurafenib 10 μM; combination increase as early as 7 h post-treatment.
Description: (§2) 5,000-8,000 cells were plated in 96 well plates and allowed to adhere. […] Plates were then assessed for caspase-3/7 activity via addition of bifunctional lysis and activity buffer (200 mM HEPES, 400 mM NaCl, 40 mM DTT, 0.4 mM EDTA, 1% Triton-X, pH 7.4) with 20 μM of Ac-DEVD-AFC (SEQ ID NO: 20) (Cayman Chemicals) as the fluorogenic substrate (λex=400 nm, λem=505 nm). Plates were pre-incubated at 37° C. at 30 min in the Synergy multi-mode reader (BioTek) then read for 30 min at 3 min intervals. The slopes for each well were calculated. Activity is expresses as normalized to minimal and maximal activity observed within the assay.
For experiment [2], the system named is PARP-1 cleavage in UACC-62 cells. Kind of experiment: PARP-1 cleavage Western blot in UACC-62. The experiment is classed as cell-based, human. Conditions: PAC-1 12 μM, vemurafenib 10 μM. Background: Immunoblotting shows a protein as a band on a membrane.
Description: (§3) Cells and tumor tissues were lysed using RIPA buffer containing phosphatase and protease inhibitor cocktail (Calbiochem). The protein concentration of each sample was determined by the BCA assay (Pierce). Cell lysates containing 20 μg of protein was loaded into each lane of 4-20% gradient gels (BioRad) for SDS-PAGE. Proteins were transferred onto PDVF membrane for Western blot analysis.
The test system of experiment [3] is caspase-3/-7 activity in UACC-62 cells. The settings on record: PAC-1 12 μM, vemurafenib 10 μM.
Description: as §2
For experiment [4], the system named is caspase-3/-7 activity in SK-MEL-5 cells. Conditions: PAC-1 12 μM, vemurafenib 10 μM.
Description: as §2
Experiment [5] has as its system A375VR cells. Kind of experiment: Cellular proliferation (SRB) assay in vemurafenib-resistant A375VR. The experiment is classed as cell-based, human. The settings on record: for IC50: 120 h, 5-day. The procedure:
To assess if PAC-1 remains active in a cell line that has acquired resistance to vemurafenib, a vemurafenib-resistant A375VR cell line was generated by growing A375 parental cell line in sequentially higher concentrations of vemurafenib (0.5 μM to 1.0 μM) for 2 months. To determine the mechanism of resistance of A375VR, genes for MEK1/2, NRAS and AKT were sequenced, but no commonly reported mutations that would confer resistance were found (Rizos et al., Clinical Cancer Research 2014; 20:1965-77). Similarly, splice variant of the ^V600EBRAF mRNA was also not observed. Through qPCR, A375VR cells have approximately 3-fold higher levels of MDR1 mRNA compared to A375.
as §1

The test system of experiment [6] is PARP-1 cleavage in SK-MEL-5 cells. Kind of experiment: PARP-1 cleavage Western blot in SK-MEL-5. The experiment is classed as cell-based, human. Conditions: PAC-1 12 μM, vemurafenib 10 μM.
Description: as §3
The subject of experiment [7] is caspase-3/-7 activity in A375 and UACC-62 cells. The settings on record: 24 h; PAC-1 12 μM, vemurafenib 10 μM, trametinib 100 nM.
Description: (A) Shown is percent apoptotic cell death after 24 h of treatment. […] Activity is expressed as normalized to the positive control. Dashed horizontal lines represent the level of cell death expected from a mere additive effect of the two agents. Values are reported as mean±SEM of at least three experiments.
5,000-8,000 cells were plated in 96 well plates and allowed to adhere. Cells were treated with 1 μM of staurosporine for 24 h or with 13 μM of raptinal (Palchaudhuri et al., Cell Rep 2015; 13:2027-36) for 3 h as positive control, DMSO as negative control and indicated concentrations of PAC-1 and vemurafenib for 0, 2, 4, 7, 10, 12, 16, 20 or 24 h. Plates were then assessed for caspase-3/7 activity via addition of bifunctional lysis and activity buffer (200 mM HEPES, 400 mM NaCl, 40 mM DTT, 0.4 mM EDTA, 1% Triton-X, pH 7.4) with 20 μM of Ac-DEVD-AFC (SEQ ID NO: 20) (Cayman Chemicals) as the fluorogenic substrate (λex=400 nm, λem=505 nm). Plates were pre-incubated at 37° C. at 30 min in the Synergy multi-mode reader (BioTek) then read for 30 min at 3 min intervals. The slopes for each well were calculated. Activity is expresses as normalized to minimal and maximal activity observed within the assay.
The subject of experiment [8] is panel of nine cell lines of diverse origins and BRAF mutational status. Kind of experiment: Cellular proliferation (SRB) assay, 5-day IC50, panel of nine cell lines. The experiment is classed as cell-based. Conditions: 120 h, read-out: IC50 values (5 day). The procedure:
as §1

For a further experiment, the system named is A375VR xenograft tumors. The settings on record: nude mice, 15 days; vemurafenib 10 mg/kg, PAC-1 100 mg/kg.
The subject of experiment [9] is PARP-1 cleavage in A375 cells. Kind of experiment: PARP-1 cleavage Western blot in A375. The experiment is classed as cell-based, human. Conditions: PAC-1 or PAC-1a 12 μM, vemurafenib 10 μM; up to 24 h.
Description: as §3
The subject of experiment [10] is A375VR cells. Kind of experiment: Annexin V/PI apoptosis in A375VR. The experiment is classed as cell-based, human. Conditions: 24 h; in combination with low concentrations of vemurafenib. How it is done:
FIGS. 13A-C. Effect of the PAC-1 and vemurafenib combination in A375VR cells. (A) Shown is percent apoptotic cell death (assessed by Annexin V/PI staining and flow cytometry) induced after 24 h of treatment. (B) The apoptotic cell death observed in (A) is greater than that predicted by the Bliss independent model. The excess cell death is calculated as [f(observed, apoptotic)−(f(PAC-1, apoptotic)+f(vemurafenib, apoptotic)−f(PAC-1, apoptotic)*f(vemurafenib, apoptotic))]*100%. […] (C) The synergistic effect of PAC-1 and vemurafenib in activating apoptosis in A375VR after 24 h.

Experiment [11] relates to ERK1/2 phosphorylation in A375VR cells. Kind of experiment: ERK1/2 phosphorylation Western blot in A375VR. The experiment is classed as cell-based, human. Conditions: 2 h; vemurafenib 0.5 or 1 μM.
Description: as §3
Experiment [12] concerns ERK1/2 phosphorylation in WTBRAF cell lines. Kind of experiment: ERK1/2 phosphorylation Western blot in WTBRAF cell lines. The experiment is classed as cell-based. The settings on record: 24 h; even at high concentrations (30 μM).
Description: as §3
In experiment [13] the test system is melanoma patients with the V600E BRAF protein. The settings on record: literature; cited from earlier work.
Experiment [14] deals with ERK1/2 phosphorylation in A375 cells. Kind of experiment: ERK1/2 phosphorylation Western blot in A375. The experiment is classed as cell-based, human.
Description: as §3
The test system of experiment [15] is ERK1/2 phosphorylation in UACC-62 cells. Kind of experiment: ERK1/2 phosphorylation Western blot in UACC-62. The experiment is classed as cell-based, human. The settings on record: 24 h; vemurafenib 0.5 μM and 1 μM.
Description: as §3
The test system of experiment [16] is ERK1/2 phosphorylation in SK-MEL-5 cells. Kind of experiment: ERK1/2 phosphorylation Western blot in SK-MEL-5. Conditions: 24 h; vemurafenib 0.5 μM and 1 μM. The experiment is classed as cell-based, human.
Description: as §3

Read-outs that look alike come from different tables or passages of the source.

Description for A375 xenograft tumors: In this model, nude mice were inoculated subcutaneously with A375 cells, and after allowing the tumors to grow, mice were randomized based upon tumor volume into four groups [F=0.03<Fcritical(3.01)] and dosed with PAC-1, vemurafenib, or the combination for 15 days.
0.1 mL of A375 or A375VR in 1:1 DMEM:matrigel (Corning) was injected into the right flank of 6-7 (A375) or 5 (A375VR) week old female athymic nude mice (Charles River). In the both models, the mice were randomized into four groups: control, 100 mg/kg PAC-1, 10 mg/kg vemurafenib, and the combination of 100 mg/kg PAC-1 and 10 mg/kg vemurafenib (n=8). Initial tumor volume measurements were taken and dosing was initiated for a period of 15 days. Vemurafenib was formulated as 5% DMSO in 1% methyl cellulose and given twice daily by oral gavage (p.o.). PAC-1 was formulated in 200 mg/mL hydroxypropyl-β-cyclodextrin at pH 5.5 and given by intraperitoneal (i.p.) injection. Tumor length and width measurements were taken three times a week and volume was calculated as 0.52*L*W^2. At the end of the study, the mice were euthanized and tumors were excised. The tumors were weighed and used for Western blot and immunohistochemistry.
Description for A375VR xenograft tumors: All animal studies were performed in accordance with UIUC IACUC guidelines (protocol no. 14292). 0.1 mL of A375 or A375VR in 1:1 DMEM:matrigel (Corning) was injected into the right flank of 6-7 (A375) or 5 (A375VR) week old female athymic nude mice (Charles River). In the both models, the mice were randomized into four groups: control, 100 mg/kg PAC-1, 10 mg/kg vemurafenib, and the combination of 100 mg/kg PAC-1 and 10 mg/kg vemurafenib (n=8). Initial tumor volume measurements were taken and dosing was initiated for a period of 15 days. Vemurafenib was formulated as 5% DMSO in 1% methyl cellulose and given twice daily by oral gavage (p.o.). PAC-1 was formulated in 200 mg/mL hydroxypropyl-β-cyclodextrin at pH 5.5 and given by intraperitoneal (i.p.) injection. Tumor length and width measurements were taken three times a week and volume was calculated as 0.52*L*W^2. At the end of the study, the mice were euthanized and tumors were excised. The tumors were weighed and used for Western blot and immunohistochemistry.

`C=CCc1cccc(/C=N/NC(=O)CN2CCN(Cc3ccccc3)CC2)c1O` [PAC-1, 2-(4-benzylpiperazin-1-yl)-N-[(2-hydroxy-3-prop-2-enyl-phenyl)methylideneamino]acetamide]: in the experiment with A375 or UACC-62 cells (A375 and UACC-62, PAC-1 1 μM), the “cell number compared to the control, after 5 days” value is reported as “significant reduction in cell number”. Moreover, the “difference from the control on day 10” value with A375 or UACC-62 cells (PAC-1 1 μM) is reported as “no observable difference”. Moreover, the “Emax (percent cell death induced by high concentrations of compound)” value with A375 cells (A375 cells, after 5 days) is given as roughly 100%. The Emax with A375 cells (Homo sapiens, read-out: Emax (percent cell death induced by high concentrations of compound), A375 cells, after 5 days) was found to be 99.4 ± 0.7%. For the same molecule, the IC50 in the experiment with A375 cells (Homo sapiens, A-375, read-out: IC50 value) was 1200 nM; in the experiment on A375VR cells [5] (Homo sapiens, A375VR) it was 2400 nM; in experiment [8], 1000 to 4000 nM. Further, the “time of continuous treatment to regrowth of cells” value in the experiment on A375 and SK-MEL-5 cells is given as greater than 30 days. The “reduction in tumor mass and volume compared to untreated control” value in the experiment on A375 xenograft tumors (PAC-1 100 mg/kg once daily i.p., 15 days) was “minimal reduction”. For the same molecule, in [1], the caspase-3 activity result was “negligible increases”. Further, the PARP-1 cleavage entry in [2], in experiment [6] and in [9] was “little effect” in each case. Besides, the caspase-3/-7 enzymatic activity entry in experiment [3] and in [4] was “little effect” each time. The caspase-3/-7 activity entry in experiment [7] is listed as “little effect”. Besides, the “antitumor effect (tumor volume compared to untreated control)” value with A375VR xenograft tumors is on record as “does not exert any antitumor affect”.

Consider `O=C(CN1CCN(Cc2ccccc2)CC1)N/N=C/c1ccccc1` [PAC-1a], for which the “proportion of cells undergoing apoptosis” value with A375VR cells [10] is listed as “abolished”.

For `CCCS(=O)(=O)Nc1ccc(F)c(C(=O)c2c[nH]c3ncc(-c4ccc(Cl)cc4)cc23)c1F` [vemurafenib], the “cell death on day 10” value with A375 or UACC-62 cells (vemurafenib 5 μM) was found to be 89.4±1.4%; in the experiment on A375 or UACC-62 cells (vemurafenib 10 μM), 93.2±1.1%. Also, the “cell number compared to the control, after 5 days” value with A375 or UACC-62 cells (A375 and UACC-62, PAC-1 1 μM) was “significant reduction in cell number”. In the experiment with A375 or UACC-62 cells (A375 and UACC-62, vemurafenib 5 or 10 μM, PAC-1 1 μM), the “regrowth of colonies after 20 days of treatment” value is listed as “significant regrowth of colonies”. Besides, the “Emax (percent cell death induced by high concentrations of compound)” value in the experiment with A375 cells (A375 cells, after 5 days) was roughly 97%. In addition, the Emax was found to be 96.8 ± 0.3% with A375 cells (Homo sapiens, A375 cells, after 5 days, read-out: Emax (percent cell death induced by high concentrations of compound)) and 79 ± 6.3% with A375VR cells [5] (Homo sapiens, A375VR). In the experiment with A375 cells (after 5 days, from Emax), the “A375 cells insensitive to compound” value is roughly 3%. Besides, in the experiment on A375 and SK-MEL-5 cells, the “time of continuous treatment to regrowth of cells” value is no less than 20 days. For the same molecule, in the experiment with A375 xenograft tumors (nude mice, dosed 15 days, PAC-1 100 mg/kg once daily i.p., vemurafenib 10 mg/kg twice daily p.o.), the “reduction in tumor volume compared to control” value is 53%. Moreover, in the experiment with A375 xenograft tumors (vemurafenib 10 mg/kg twice daily p.o., 15 days), the “mice having comparable tumor mass as the control mice” value is 3 out of 8. The caspase-3 activity entry in experiment [1] is recorded as “negligible increases”. For the same molecule, the PARP-1 cleavage result in experiment [2], in [6] and in experiment [9] was “little effect” each time. The caspase-3/-7 enzymatic activity result in [3] and in experiment [4] was “little effect” in each case. Moreover, in [11], the “complete inhibition of ERK1/2 phosphorylation” value was “not observed”. The “loss of potency compared to parental A375” value in the experiment on A375VR cells [5] (5-day IC50, A375VR vs A375) is 12 fold. For the same molecule, the “Emax lower than the parental A375 cell line” value in the experiment on A375VR cells [5] (A375VR vs A375) amounted to 14%. The IC50 is 1500 nM in the experiment on A375VR cells [5] (Homo sapiens, A375VR) and 200 to 550 nM in experiment [8]. Also, the caspase-3/-7 activity entry in experiment [7] is “little effect”. Besides, the “inhibition of ERK1/2 phosphorylation” value in [12] is on record as “not observed”; in experiment [14] (2 h, vemurafenib 0.5 or 1 μM, parental A375), “complete inhibition”. Further, the “antitumor effect (tumor volume compared to untreated control)” value in the experiment on A375VR xenograft tumors is “does not exert any antitumor affect”. Further, the “extension of progression-free survival” value in experiment [13] is 5.3 months. The phospho-ERK1/2 bands result in experiment [14] (24 h, vemurafenib 0.5 and 1.0 μM) is listed as “not observed”. For the same molecule, the “phosphorylation of ERK1/2” value in [15] and in experiment [16] was “inhibited the phosphorylation of ERK1/2” throughout.

As usually defined, the IC50 is the concentration that gives 50% inhibition.

The values above are taken from patent US11129830B2, “PAC-1 combination therapy” (The Board of Trustees of the University of Illinois, priority 2015, dated 2021).
